The structures appear in SMILES notation.

Broadly, the ΔTm is the shift of the melting midpoint relative to a reference. Usually IC50 stands for the concentration at which inhibition is half-maximal.

The target of experiment [1] is T1, human TEAD2 (amino acids 217-447) (Homo sapiens, UniProt Q15562).
T1 construct: human TEAD2 (amino acids 217-447); His-tag (N); purchased Proteros biostructures PR-0365; host or cells: E. coli
The experiment is described as follows: Thermal shift assay (TSA). Conditions: 3 μM recombinant TEAD2, compound 7 μM, shift vs DMSO control. Format: binding.

Experiment [2] concerns TEAD reporter gene activity. The experiment is described as follows: TEAD reporter gene assay (MCF7 TEAD reporter cell line). To be noted: Homo sapiens; TEAD luciferase reporter in MCF7 cells, 24 hours; read-out: IC50 TEAD RGA (converted). Type of experiment: cell-based.
Experiment [3] relates to NCI-H226 xenografts. The experiment is described as follows: NCI-H226 tumor xenograft efficacy study. Format: in vivo. To be noted: day 62, NCI-H226 xenografts in BALB/c nude mice. The procedure: Female BALB/c nude mice (GemPharmatech Co., Ltd) were subcutaneously inoculated with 10×10^6 NCI-H226 tumor cells (ATCC, CRL-5826) in 0.2 mL of PBS mixed with matrigel (1:1) (Corning). Randomization into six groups (n=8 animals per group) was performed when the mean tumor size reached approximately 150 (100-200) mm^3, after which drug treatments were started. Animals were dosed daily orally at the specified concentrations using an oral-gavage needle. The dosing volume was 10 mL/kg per mouse, with a volume adjusted to the mouse body weight. The vehicle control (water containing 0.5% hydroxypropyl methyl cellulose (Sigma-Aldrich, #H3785) and 0.5% Tween 80 (Sigma-Aldrich, #P1754) was administered in the same way. Tumor volumes were measured twice weekly in two dimensions using a caliper, and the volume was expressed in mm^3 using the formula “V=(L×W^2)/2”, where V is the tumor volume, L is the tumor length (the longest tumor dimension) and W is the tumor width (the longest tumor dimension perpendicular to L).
Animal protocols were reviewed and approved by the Institutional Animal Care and Use Committee (IACUC) at CrownBio. During the study, the care and use of animals was conducted in accordance with the regulations of the Association for Assessment and Accreditation of Laboratory Animal Care (AAALAC).

In experiment [4] the test system is TEAD-dependent PD marker CTGF. The experiment is described as follows: MSTO-211H tumor xenograft pharmacodynamic (PD) study. Format: in vivo, mice. How it is done: Female CB. 17 SCID mice (Charles River) were subcutaneously inoculated with 5×10^6 MSTO-211H tumor cells (ATCC, CRL-2081) in 0.1 mL of PBS mixed with matrigel (1:1) (BD Biosciences). Randomization into two groups was performed when the mean tumor size reached approximately 300-400 mm^3, after which drug treatments were started.
Animals were dosed daily orally at the specified concentrations of the compound of Example 2 or the compound of Example 11 using an oral-gavage needle. The dosing volume was 10 mL/kg per mouse, with a volume adjusted to the mouse body weight. The vehicle control (water containing 0.5% hydroxypropyl methyl cellulose (Sigma-Aldrich, #H9262) and 0.5% Tween 80 (Sigma-Aldrich, #P1754)) was administered in the same way.
PD marker analysis was performed on tumors that were collected from animals 3 hours after the last dose was given. […] The tumor protein lysates were prepared and analyzed using standard Western blot procedures. […] For quantitative PCR (qPCR) analyses, RNA was converted into cDNA following manufacturer's instructions (SuperScript™ III First-Strand Synthesis for RT-PCR, Invitrogen, #18080-051). […] The increase in fluorescence was analyzed with the instrument-specific software (Roche, LightCycler® 480 II), and a mean quantity was calculated from duplicate or triplicate PCRs for each sample using the ΔΔCt method.

T1 sequence (Q15562 217-447): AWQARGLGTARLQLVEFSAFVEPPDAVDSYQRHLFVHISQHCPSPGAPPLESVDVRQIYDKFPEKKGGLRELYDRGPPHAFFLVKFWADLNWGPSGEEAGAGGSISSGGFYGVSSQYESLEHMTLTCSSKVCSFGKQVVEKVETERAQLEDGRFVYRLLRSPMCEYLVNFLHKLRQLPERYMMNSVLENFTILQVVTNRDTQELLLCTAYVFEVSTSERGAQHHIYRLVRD

As for `O=c1[nH]c(-c2nccnc2Nc2ccc(C(F)(F)F)cc2)no1` [Example 2, 3-[3-[4-(trifluoromethyl)anilino]pyrazin-2-yl]-4H-1,2,4-oxadiazol-5-one], in experiment [1], the ΔTm at 7 µM was determined as 10.6 °C. The IC50 in experiment [2] is 41 nM. Further, the entries for the “final ΔT/C” value in experiment [3] (50 mg/kg po qd), in experiment [3] (125 mg/kg po qd) and in experiment [3] (250 mg/kg po qd) were 0.27, 0.13 and 0.017, respectively. For the same compound, in experiment [4] (250 mg/kg po qd×8, MSTO-211H tumors isolated 3 hours after last dose), the “decrease of CTGF mRNA to (normalized to actin mRNA)” value amounted to 28%.
On to `COc1ccnc(Nc2ccc(C(F)(F)F)cc2)c1-c1noc(=O)[nH]1` [Example 11, 3-[4-methoxy-2-[4-(trifluoromethyl)anilino]-3-pyridyl]-4H-1,2,4-oxadiazol-5-one], for which the ΔTm at 7 µM in experiment [1] came to 6.7 °C. The 50% inhibitory concentration (IC50) in experiment [2] was 39 nM. Also, in experiment [4] (250 mg/kg po qd×5, MSTO-211H tumors isolated 3 hours after last dose), the “decrease of CTGF mRNA to (normalized to actin mRNA)” value was found to be 32%.

For the origin of these results see patent publication US20220402900A1, “1,2,4-OXADIAZOL-5-ONE DERIVATIVES FOR THE TREATMENT OF CANCER” (Basilea Pharmaceutica International AG, priority 2019, published 2022).
